# Source: patent US20230070861A1, “COMPOSITIONS AND METHODS FOR TREATING HEPATITIS B” (priority 2019, published 2023)
# System: HBV
# Experiment: HBV markers in HBV-infected primary human hepatocyte (PHH) co-culture
# Type: cell-based
# Method: A system comprising HBV-infected primary human hepatocytes (PHHs) was established by persistent HBV infection for over 30 days in a self-assembling, primary hepatocyte co-culture system (FIG. 12A). To generate the co-cultures system, primary human hepatocytes (PHH) (BioIVT) were plated at 350 k cells per well in a Collagen-Type I coated 24-well plate (Corning, 354408), and incubated at 37° C., 5% C02 to generate an adherent cell monolayer. 4 hrs post plating, plated hepatocytes were washed with CP medium (BioIVT) to remove any unadhered cells. 3T3-J2 murine embryonic fibroblasts (Kerafast (distributed from Howard Green (Harvard), Boston) were seeded at a ratio of 95% hepatocyte:5% fibroblast per well and cultured at 37° C., 5% C02 for an additional 12 hours to form co-cultures. Culture medium was replaced every 2 days (500 μL per well) for continued maintenance. Shown in FIG. 12C are images of transduced primary hepatocytes from two human hepatocyte donors, isolated from two different human livers. They were isolated, cryopreserved, and distributed for sale for research purposes by BioIVT (Maryland, US).
# On the second day, post hepatocyte co-culture formation, lentivirus was added at an MOI 500 dropwise into culture medium per well. Co-cultures were transduced for 16 hours, prior to changing media for fresh CP medium (BioIVT). Culture medium was replaced every 2 days (500 μL per well) for continued maintenance. Protein expression occurs over 7 days period in hepatic co-cultures. At day 7 post transduction, co-cultures were transfected using lipofection based reagents co-formulated with gRNA and base-editor mRNA. Cells were lysed and harvested for gDNA 48 hours post transfection. FIG. 12B provides a timeline of the in vitro transduction schedule in either hepatocyte monolayers or hepatocyte co-cultures showing representative time points. Importantly, PHH cultures not treated with polyethylene glycol (PEG) during infection tend to have very low percentages of HBV infected PHH cells.
# The infected cells, as gauged by HBV markers, respond to treatment as expected. […] The amounts of extracellular HBV DNA detected in the treated PHH cultures were similar to the amount observed in negative control cell cultures.
# The experiments employed the approach using the HBV-infected PHH culture system and transfection of the PHH with components (base editors) of the base editor system as depicted in FIG. 19. Primary hepatocytes (PHH) co-cultures were infected with HBV in order to test antiviral efficacy of the base editors. The base editing reagents or components (base editor mRNA and synthetic gRNA) were transfected via lipofection twice over the course of two weeks. The first transfection was performed 3 days after infection to allow for complete formation of viral covalently closed circular DNA (cccDNA) at the time of the transfection. Extracellular parameters (HBsAg, HBeAg, and HBV DNA) were monitored over the course of the experiment and intracellular parameters (HBV DNA, viral RNA, and editing) were monitored at the end of the experiment. Briefly, on Day 0, PHH were infected with HBV (MOI=500). On Day 3 after HBV infection, the cells were transfected with base editing components, e.g., a BE and gRNA, or control(s). On Day 10, PHHs were subjected to another round of transfection. At the termination of the experiment, e.g., Day 17 or longer, e.g., Day 25, the PHH were lysed and extracellular amounts of HBsAg, HBeAg and HBV DNA were assessed. Also assessed were intracellular amounts of HBV DNA, viral RNA and the efficacy of base editing by the components of the base editor system versus control(s). Transfection details: RNA format, 800 ng total RNA per well in a 24 well plate (600 ng base editor+200 ng gRNA) transfected via lipofection (lipofectamin messengerMax, Thermofisher Scientific) according to the vendor's protocol. […]
# [1] = 14-day PHH co-culture experiment, FIG. 20
SMILES,HBV DNA [1],HBsAg [1],pgRNA [1],"extracellular HBV DNA (compared to untreated HBV infected control cells, by day 7 post infection, FIG. 13B)","HBV surface antigen (HBsAg) (relative to negative controls, FIG. 13C)","intracellular HBV DNA (relative to negative controls, FIG. 13D)","total HBV RNA (relative to negative controls, FIG. 13E)","pre-genomic RNA (pgRNA) (relative to negative controls, FIG. 13F)"
C=C1[C@H](CO)[C@@H](O)C[C@@H]1n1cnc2c(=O)[nH]c(N)nc21 [entecavir],reduces,does not influence,does not influence,–,–,–,–,–
C[C@H](Cn1cnc2c(N)ncnc21)OCP(=O)(O)O [tenofovir],–,–,–,significantly reduced,lower levels,lower levels,lower levels,lower levels
